Results: PubChem BioAssay AID288 (DTP/NCI, 2004)
Several values for one entry are separate records, joined by “and”; a condition that tells them apart may be missing. Equal entries are not always repeated. Inconclusive results are not listed.

System: BDF1 mice, M5076 sarcoma s.c., survival/tumor T/C
Assay: NCI In Vivo Anticancer Drug Screen. Data for tumor model Sarcoma M5076 (subcutaneous) in B6D2F1 (BDF1) mice
Method: The antitumor activity of compounds was measured in mice bearing transplantable tumors. Survival or tumor size were measured and the results are expressed as the measurement made in the treated group (T) divided by the measurement made in the vehicle treated control group (C). The tumor model used in this assay is Sarcoma M5076 (subcutaneous) in B6D2F1 (BDF1) mice

[1] = endpoint: median survival time, dose: 50.0 mg/kg/injection, schedule: Q01DX009 (ip), vehicle: saline with Tween-80, higher = longer survival
[2] = endpoint: median survival time, dose: 100.0 mg/kg/injection, schedule: Q01DX009 (ip), vehicle: saline with Tween-80, higher = longer survival
[3] = endpoint: median survival time, dose: 200.0 mg/kg/injection, schedule: Q01DX009 (ip), vehicle: saline with Tween-80, higher = longer survival
[4] = endpoint: median tumor weight (est.), dose: 50.0 mg/kg/injection, schedule: Q01DX009 (ip), vehicle: saline with Tween-80, higher = larger tumour
[5] = endpoint: median tumor weight (est.), dose: 100.0 mg/kg/injection, schedule: Q01DX009 (ip), vehicle: saline with Tween-80, higher = larger tumour
[6] = endpoint: median tumor weight (est.), dose: 200.0 mg/kg/injection, schedule: Q01DX009 (ip), vehicle: saline with Tween-80, higher = larger tumour

C=C1C(O)C2OC3(CCC(/C=C/C(C)C4CC5(C)SC5C5(OC(CC(C)(O)C(=O)O)CCC5O)O4)O3)CCC2OC1C(O)CC(C)C1OC2(CCCCO2)CCC1C (stereo not drawn)
T/C (endpoint: median survival time, dose: 1.25 micrograms/kg/injection, schedule: Q01DX009 (ip), vehicle: saline + alcohol, higher = longer survival): 101 % of control
T/C (endpoint: median survival time, dose: 2.5 micrograms/kg/injection, schedule: Q01DX009 (ip), vehicle: saline + alcohol, higher = longer survival): 96 % of control
T/C (endpoint: median survival time, dose: 5.0 micrograms/kg/injection, schedule: Q01DX009 (ip), vehicle: saline + alcohol, higher = longer survival): 108 % of control
T/C (endpoint: median survival time, dose: 10.0 micrograms/kg/injection, schedule: Q01DX009 (ip), vehicle: saline + alcohol, higher = longer survival): 96 % of control
T/C (endpoint: median tumor weight (est.), dose: 1.25 micrograms/kg/injection, schedule: Q01DX009 (ip), vehicle: saline + alcohol, higher = larger tumour): 107 % of control
T/C (endpoint: median tumor weight (est.), dose: 2.5 micrograms/kg/injection, schedule: Q01DX009 (ip), vehicle: saline + alcohol, higher = larger tumour): 77 % of control
T/C (endpoint: median tumor weight (est.), dose: 5.0 micrograms/kg/injection, schedule: Q01DX009 (ip), vehicle: saline + alcohol, higher = larger tumour): 92 % of control

CC[C@](O)(C(=O)O)c1cc2n(c(=O)c1CO)Cc1cc3ccccc3nc1-2
T/C (endpoint: mean tumor weight, dose: 1.13 mg/kg/injection, schedule: Q02DX011 (ip), vehicle: saline, higher = larger tumour): 95 % of control
T/C (endpoint: mean tumor weight, dose: 2.25 mg/kg/injection, schedule: Q02DX011 (ip), vehicle: saline, higher = larger tumour): 61 % of control
T/C (endpoint: mean tumor weight, dose: 4.5 mg/kg/injection, schedule: Q02DX011 (ip), vehicle: saline, higher = larger tumour): 25 % of control
T/C (endpoint: median tumor weight (est.), dose: 1.13 mg/kg/injection, schedule: Q02DX011 (ip), vehicle: saline, higher = larger tumour): 97 % of control
T/C (endpoint: median tumor weight (est.), dose: 2.25 mg/kg/injection, schedule: Q02DX011 (ip), vehicle: saline, higher = larger tumour): 96 % of control
T/C (endpoint: median tumor weight (est.), dose: 4.5 mg/kg/injection, schedule: Q02DX011 (ip), vehicle: saline, higher = larger tumour): 44 % of control

S=c1nc[nH]c2nc[nH]c12
T/C (endpoint: median survival time, dose: 12.5 mg/kg/injection, schedule: Q04DX006 (ip), vehicle: saline with Tween-80, higher = longer survival): 99 % of control
T/C (endpoint: median survival time, dose: 25.0 mg/kg/injection, schedule: Q04DX006 (ip), vehicle: saline with Tween-80, higher = longer survival): 111 % of control
T/C (endpoint: median survival time, dose: 50.0 mg/kg/injection, schedule: Q02DX033 (ip), vehicle: saline with Tween-80, higher = longer survival): 107 % of control
T/C (endpoint: median survival time, dose: 50.0 mg/kg/injection, schedule: Q04DX006 (ip), vehicle: saline with Tween-80, higher = longer survival): 105 % of control
T/C (endpoint: median survival time, dose: 100.0 mg/kg/injection, schedule: Q04DX006 (ip), vehicle: saline with Tween-80, higher = longer survival): 111 % of control

O=C(O)C1(C(=O)O)CCC1.[NH2-].[NH2-].[Pt+2]
T/C (endpoint: median survival time, dose: 6.25 mg/kg/injection, schedule: Q02DX030 (ip), vehicle: water, higher = longer survival): 98 % of control
T/C (endpoint: median survival time, dose: 17.0 mg/kg/injection, schedule: Q01DX009 (ip), vehicle: other, higher = longer survival): 100 % of control
T/C (endpoint: median survival time, dose: 25.0 mg/kg/injection, schedule: Q01DX009 (ip), vehicle: other, higher = longer survival): 114 % of control
T/C (endpoint: median survival time, dose: 25.0 mg/kg/injection, schedule: Q02DX030 (ip), vehicle: water, higher = longer survival): 165 % of control
T/C (endpoint: median survival time, dose: 25.92 mg/kg/injection, schedule: Q04DX005 (ip), vehicle: water, higher = longer survival): 162 % of control
T/C (endpoint: median survival time, dose: 38.0 mg/kg/injection, schedule: Q01DX009 (ip), vehicle: other, higher = longer survival): 107 % of control
T/C (endpoint: median survival time, dose: 43.2 mg/kg/injection, schedule: Q04DX005 (ip), vehicle: water, higher = longer survival): 169 % of control
T/C (endpoint: median survival time, dose: 50.0 mg/kg/injection, schedule: Q02DX030 (ip), vehicle: water, higher = longer survival): 94 % of control
T/C (endpoint: median survival time, dose: 72.0 mg/kg/injection, schedule: Q04DX005 (ip), vehicle: water, higher = longer survival): 196 % of control
T/C (endpoint: median tumor weight (est.), dose: 15.6 mg/kg/injection, schedule: Q04DX005 (ip), vehicle: water, higher = larger tumour): 22 % of control
T/C (endpoint: median tumor weight (est.), dose: 25.92 mg/kg/injection, schedule: Q04DX005 (ip), vehicle: water, higher = larger tumour): 20 % of control

Cc1cc(-c2ccc(NC(=O)c3cccc([N+](=O)[O-])c3)c(C)c2)ccc1NC(=O)c1cccc([N+](=O)[O-])c1
T/C [1]: 107 % of control
T/C [2]: 102 % of control
T/C [3]: 102 % of control
T/C [4]: 90 % of control
T/C [5]: 83 % of control
T/C [6]: 71 % of control

COc1cc(COC(=O)Nc2ccccc2F)cc(OC)c1OC
T/C [1]: 100 % of control
T/C [2]: 103 % of control
T/C [3]: 94 % of control
T/C [4]: 99 % of control
T/C [5]: 111 % of control
T/C [6]: 98 % of control

COc1cc(-c2ccc(NC(=O)NC3CC3)c(OC)c2)ccc1NC(=O)NC1CC1
T/C [1]: 101 % of control
T/C [2]: 93 % of control
T/C [3]: 88 % of control
T/C [4]: 101 % of control
T/C [5]: 84 % of control

O=[N+]([O-])c1ccc(CSc2ncnc3c2ncn3C2OC(COP(=O)(O)O)C(O)C2O)cc1 (stereo not drawn)
T/C (endpoint: median survival time, dose: 64.8 mg/kg/injection, schedule: Q01DX005 (ip), vehicle: saline, higher = longer survival): 115 % of control and 118 % of control

CC(=O)O[C@]1(C(C)=O)CC[C@H]2[C@@H]3C[C@H](C)C4=CC(=O)CC[C@]4(C)[C@H]3CC[C@@]21C
T/C (endpoint: mean tumor weight, dose: 100.0 mg/kg/injection, schedule: Q02DX011 (ip), vehicle: Klucel (hydroxypropylcellulose) (HPC), higher = larger tumour): 44 % of control
T/C (endpoint: mean tumor weight, dose: 200.0 mg/kg/injection, schedule: Q02DX011 (ip), vehicle: Klucel (hydroxypropylcellulose) (HPC), higher = larger tumour): 122 % of control
T/C (endpoint: mean tumor weight, dose: 400.0 mg/kg/injection, schedule: Q02DX011 (ip), vehicle: Klucel (hydroxypropylcellulose) (HPC), higher = larger tumour): 74 % of control
T/C (endpoint: median tumor weight (est.), dose: 100.0 mg/kg/injection, schedule: Q02DX011 (ip), vehicle: Klucel (hydroxypropylcellulose) (HPC), higher = larger tumour): 49 % of control
T/C (endpoint: median tumor weight (est.), dose: 200.0 mg/kg/injection, schedule: Q02DX011 (ip), vehicle: Klucel (hydroxypropylcellulose) (HPC), higher = larger tumour): 86 % of control
T/C (endpoint: median tumor weight (est.), dose: 400.0 mg/kg/injection, schedule: Q02DX011 (ip), vehicle: Klucel (hydroxypropylcellulose) (HPC), higher = larger tumour): 59 % of control

c1cc2n(n1)CCN2
T/C (endpoint: mean tumor weight, dose: 6.25 mg/kg/injection, schedule: Q02DX011 (ip), vehicle: saline, higher = larger tumour): 122 % of control
T/C (endpoint: mean tumor weight, dose: 12.5 mg/kg/injection, schedule: Q02DX011 (ip), vehicle: saline, higher = larger tumour): 85 % of control
T/C (endpoint: mean tumor weight, dose: 25.0 mg/kg/injection, schedule: Q02DX011 (ip), vehicle: saline, higher = larger tumour): 103 % of control
T/C (endpoint: median tumor weight (est.), dose: 6.25 mg/kg/injection, schedule: Q02DX011 (ip), vehicle: saline, higher = larger tumour): 161 % of control

CN(N=O)C(=O)N[C@@H](C=O)[C@@H](O)[C@H](O)[C@H](O)CO
T/C (endpoint: mean tumor weight, dose: 9.38 mg/kg/injection, schedule: Q02DX011 (ip), vehicle: other, higher = larger tumour): 64 % of control
T/C (endpoint: mean tumor weight, dose: 18.75 mg/kg/injection, schedule: Q02DX011 (ip), vehicle: other, higher = larger tumour): 37 % of control and 56 % of control
T/C (endpoint: mean tumor weight, dose: 37.5 mg/kg/injection, schedule: Q02DX011 (ip), vehicle: other, higher = larger tumour): 11 % of control and 15 % of control
T/C (endpoint: mean tumor weight, dose: 75.0 mg/kg/injection, schedule: Q02DX011 (ip), vehicle: other, higher = larger tumour): 1 % of control
T/C (endpoint: median tumor weight (est.), dose: 9.38 mg/kg/injection, schedule: Q02DX011 (ip), vehicle: other, higher = larger tumour): 45 % of control
T/C (endpoint: median tumor weight (est.), dose: 18.75 mg/kg/injection, schedule: Q02DX011 (ip), vehicle: other, higher = larger tumour): 39 % of control and 60 % of control
T/C (endpoint: median tumor weight (est.), dose: 37.5 mg/kg/injection, schedule: Q02DX011 (ip), vehicle: other, higher = larger tumour): 10 % of control and 34 % of control

O=C1N[C@H]2[C@H](O)[C@H](O)[C@@H](O)[C@H](O)[C@@H]2c2cc3c(c(O)c21)OCO3
T/C (endpoint: median survival time, dose: 0.38 mg/kg/injection, schedule: Q01DX009 (ip), vehicle: saline + alcohol, higher = longer survival): 101 % of control
T/C (endpoint: median survival time, dose: 0.75 mg/kg/injection, schedule: Q01DX009 (ip), vehicle: saline + Tween-80 + alcohol, higher = longer survival): 106 % of control
T/C (endpoint: median survival time, dose: 0.75 mg/kg/injection, schedule: Q01DX009 (ip), vehicle: saline + alcohol, higher = longer survival): 89 % of control
T/C (endpoint: median survival time, dose: 1.5 mg/kg/injection, schedule: Q01DX009 (ip), vehicle: saline + Tween-80 + alcohol, higher = longer survival): 111 % of control
T/C (endpoint: median survival time, dose: 1.5 mg/kg/injection, schedule: Q01DX009 (ip), vehicle: saline + alcohol, higher = longer survival): 94 % of control
T/C (endpoint: median survival time, dose: 3.0 mg/kg/injection, schedule: Q01DX009 (ip), vehicle: saline + alcohol, higher = longer survival): 120 % of control
T/C (endpoint: median tumor weight (est.), dose: 0.38 mg/kg/injection, schedule: Q01DX009 (ip), vehicle: saline + alcohol, higher = larger tumour): 103 % of control
T/C (endpoint: median tumor weight (est.), dose: 0.75 mg/kg/injection, schedule: Q01DX009 (ip), vehicle: saline + Tween-80 + alcohol, higher = larger tumour): 80 % of control
T/C (endpoint: median tumor weight (est.), dose: 0.75 mg/kg/injection, schedule: Q01DX009 (ip), vehicle: saline + alcohol, higher = larger tumour): 96 % of control
T/C (endpoint: median tumor weight (est.), dose: 1.5 mg/kg/injection, schedule: Q01DX009 (ip), vehicle: saline + Tween-80 + alcohol, higher = larger tumour): 49 % of control
T/C (endpoint: median tumor weight (est.), dose: 1.5 mg/kg/injection, schedule: Q01DX009 (ip), vehicle: saline + alcohol, higher = larger tumour): 64 % of control
T/C (endpoint: median tumor weight (est.), dose: 3.0 mg/kg/injection, schedule: Q01DX009 (ip), vehicle: saline + Tween-80 + alcohol, higher = larger tumour): 2 % of control
T/C (endpoint: median tumor weight (est.), dose: 3.0 mg/kg/injection, schedule: Q01DX009 (ip), vehicle: saline + alcohol, higher = larger tumour): 27 % of control
T/C (endpoint: median tumor weight (est.), dose: 6.0 mg/kg/injection, schedule: Q01DX009 (ip), vehicle: saline + alcohol, higher = larger tumour): 3 % of control
